# Laboratory results as given in the supplement of paper PMC10307832.
# How the values were obtained:
# Assay in all cases: relative viability (nuclei count vs DMSO), 5 days (fraction); higher = more cells survive
# [1] = compound: O=c1[nH]cc(F)c(=O)[nH]1 [5-Fluorouracil] + CS(=O)(=O)CCNCc1ccc(-c2ccc3ncnc(Nc4ccc(OCc5cccc(F)c5)c(Cl)c4)c3c2)o1 [Lapatinib] (partner 2 µM)
# Outline: (§1)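 Five library-drug doses in √10 steps were combined with a fixed anchor-drug dose, or a single drug was given alone, by pin tool to lung cancer cell lines in 1536-well plates the day after seeding. Nuclei were stained and counted after 5 days. Relative viability is the nuclei count in treated wells over that in vehicle wells, taken as the median of duplicate plates.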
# [2] = compound: CN[C@@H]1C[C@H]2O[C@@](C)([C@@H]1OC)n1c3ccccc3c3c4c(c5c6ccccc6n2c5c31)C(=O)NC4 [Staurosporine] + C[C@]1(O)C[C@@H](c2nc(-c3ccc4ccc(-c5ccccc5)nc4c3)c3c(N)nccn32)C1 [Linsitinib] (partner 1 µM)
# Outline: as §1
# Sulindac + Navitoclax = compound: CC1=C(CC(=O)O)c2cc(F)ccc2/C1=C\c1ccc([S+](C)[O-])cc1 [Sulindac] + CC1(C)CCC(c2ccc(Cl)cc2)=C(CN2CCN(c3ccc(C(=O)NS(=O)(=O)c4ccc(N[C@H](CCN5CCOCC5)CSc5ccccc5)c(S(=O)(=O)C(F)(F)F)c4)cc3)CC2)C1 [Navitoclax] (partner 0.5 µM)
# Outline: as §1
# [3] = compound: O=c1[nH]cc(F)c(=O)[nH]1 [5-Fluorouracil] + CC(C)C[C@H](NC(=O)[C@H](Cc1ccccc1)NC(=O)c1cnccn1)B(O)O [Bortezomib] (partner 0.002 µM)
# Outline: as §1
cell line,measurement,setting,value
UMC-11,relative viability,[1]; first compound 0.02 µM,0.905
same,relative viability,[1]; first compound 0.2 µM,0.746
same,relative viability,[1]; first compound 0.6325 µM,0.434
same,relative viability,[1]; first compound 2 µM,0.443
same,relative viability,[2]; first compound 0.005 µM,0.901
same,relative viability,[2]; first compound 0.01581 µM,0.569
same,relative viability,[2]; first compound 0.05 µM,0.583
same,relative viability,[2]; first compound 0.1581 µM,0.126
same,relative viability,[2]; first compound 0.5 µM,0.0837
same,relative viability,Sulindac + Navitoclax; first compound 0.08 µM,0.3
same,relative viability,Sulindac + Navitoclax; first compound 0.253 µM,0.305
same,relative viability,Sulindac + Navitoclax; first compound 0.8 µM,0.309
same,relative viability,Sulindac + Navitoclax; first compound 2.53 µM,0.292
same,relative viability,Sulindac + Navitoclax; first compound 8 µM,0.38
same,relative viability,[3]; first compound 0.02 µM,0.674
same,relative viability,[3]; first compound 0.2 µM,0.542
same,relative viability,[3]; first compound 0.6325 µM,0.368
same,relative viability,[3]; first compound 2 µM,0.35
